Experimental data taken from US12383572B2, “Administration of an anti-activin-a compound to a subject” (AMGEN INC., priority 2013, dated 2025).

Tests used:
[1] = tested on: TOV-21G ovarian xenograft tumors; test: sActRIIB and doxorubicin in TOV-21G tumor-bearing nude mice: tumor size and weight; assay type: in vivo, human; details: sActRIIB 10 mg/kg SC 1x/week, DOX 2 mg/kg IP 1x/week; 4-week study
Method: (§1) The objective of the present study was to examine the effect of pharmacological administration of sActRIIB, doxorubicin (dox), and sActRIIB plus doxorubicin, respectively, on body weight, tumor growth and muscle mass in nude mice implanted with TOV-21G ovarian xenograft tumors. Eight-week-old female Athymic nude mice were SC injected with 0.2 mL of 5×10^6 TOV-21G cells into the left site of the lower flank of the mice. After 10 days of tumor implantation, the mice were divided into 4 groups by body weight and tumor size and then treated with vehicle, sActRIIB, doxorubicin or the combination of sActRIIB and doxorubicin. In addition, a group of non-tumor bearing mice was used as normal control and received PBS.
(§2) Mice were weighed weekly. Body weight data were recorded longitudinally. Tumor size was measured longitudinally by using an electronic caliper. The following formula was used to calculate actual tumor volume (Tomayko M and Reynolds C, 1989): (Volume of a rectangular solid tumor: Tumor volume (mm^3)=length (mm)×width (mm)×height (mm) of tumor). At the end of the study, mice in all groups were subjected to terminal necropsy and lean carcass weight (excluding skin, adipose tissue, internal organs, and head) was determined by using standard anatomical dissection procedures. […] All results were expressed as the mean±SEM (standard error of the mean). […]

[2] = sActRIIB and doxorubicin in TOV-21G tumor-bearing nude mice: body weight and muscle mass; assay type: in vivo, mouse
Method: as §1, §2

[3] = tested on: TOV-21G ovarian xenograft tumors; test: Activin-A antibody and doxorubicin in TOV-21G tumor-bearing nude mice: tumor size and weight; assay type: in vivo, human; details: activin-A antibody 20 mg/kg SC 1x/week, DOX 4 mg/kg IP 1x/week; vs vehicle-treated
Description: (§3) The objective of this study was to examine the effects of pharmacological administration of activin-A antibody, doxorubicin, and activin-A antibody plus doxorubicin, on body weight, tumor growth and muscle mass in nude mice implanted with TOV-21G ovarian xenograft tumors. The activin-A antibody used was the same as described in the Materials section above. Eight-week-old female Athymic nude mice were each injected with 2.2×10^6 TOV-21G cells subcutaneously (SC) into the left site of the lower flank of the mice. On day 12 post tumor implantation, the mice were divided into 4 groups by body weight and tumor size and then treated with vehicle, activin-A antibody, doxorubicin, or the combination of activin-A antibody and doxorubicin. In addition, a group of non-tumor bearing mice was used as normal control and received PBS.
(§4) Mice were weighed weekly. Body weight data were recorded longitudinally. Tumor size was measured longitudinally by using an electronic caliper (Fred V. Fowler Company, Inc.). […] At the end of the study, mice in all groups were subjected to terminal necropsy and lean carcass weight (excluding skin, adipose tissue, internal organs, and head) was determined by using standard anatomical dissection procedures. […] All results were expressed as the mean±SEM. […]

[4] = Activin-A antibody and doxorubicin in TOV-21G tumor-bearing nude mice: body weight and muscle mass; assay type: in vivo, mouse
Description: as §3, §4

TOV-21G xenografts = test: TOV-21G xenograft, sActRIIB and 5-FU chemotherapy combination; assay type: in vivo, human; details: nude mice; sActRIIB 10 mg/kg SC 1x/week, 5-FU 50 mg/kg IP 3 cycles, alone or together
Method: TOV-21G xenograft. 5×10^6 TOV-21G ovarian cancer cells were implanted subcutaneously into individual female athymic nu/nu mice (Harlan). Treatment was initiated at day 12 after tumor implantation, when the average tumor volume reached approximately 150 mm^3. The mice received PBS, sActRIIB (30 mg/kg, SC, 1×/week) or activin-A antibody (30 mg/kg, SC, 2×/week). In a separate chemotherapy combination experiment, the mice were treated with PBS, sActRIIB (10 mg/kg, SC, 1×/week), 5-FU (50 mg/kg, IP, 3 cycles, 4 daily injections per cycle) or sActRIIB and 5-FU combination at the same doses above. For all xenograft experiments, the tumor sizes were measured longitudinally by using an electronic caliper. Immediately prior to the 1st dose, the tumor-bearing mice were randomized to ensure even distribution in tumor sizes across different groups. Tumor volumes (mm^3) were calculated as tumor length (mm)×tumor width (mm)×tumor height (mm). Tumor weights were determined by necropsy.

SMILES	tumor size and tumor weight vs vehicle-treated TOV-21G group [1]	body weight ([2]; TOV-21G tumor-bearing nude mice, sActRIIB 10 mg/kg SC 1x/week, DOX 2 mg/kg IP 1x/week)	lean carcass weight and calf muscle mass ([2]; TOV-21G-implanted nude mice, necropsy at end of 4-week experiment)	tumor size and tumor weight (day 47) / tumor growth [3]	body weight ([4]; TOV-21G tumor-bearing nude mice, activin-A antibody 20 mg/kg SC 1x/week, DOX 4 mg/kg IP 1x/week)	lean carcass weight and calf muscle mass ([4]; TOV-21G-implanted nude mice, necropsy at end of 5-week experiment)	rate of tumor growth (TOV-21G xenografts)
COc1cccc2c1C(=O)c1c(O)c3c(c(O)c1C2=O)C[C@@](O)(C(=O)CO)C[C@@H]3O[C@H]1C[C@H](N)[C@H](O)[C@H](C)O1 [Doxorubicin, doxorubicin, reference compound]	significantly reduced tumor size and tumor weight	further decline (non-statistically significant) in body weight	no effect on the loss of lean carcass weight and calf muscle mass	capable of inhibiting TOV-21G tumor growth	further decline (non-statistically significant) in body weight	no effect on the loss of lean carcass weight and calf muscle mass	
O=c1[nH]cc(F)c(=O)[nH]1 [Antibody 5-FU, 5-Fluorouracil, reference compound]							decreased the rate of tumor growth significantly
